# Results as given in publication PMC5171790, “Ribavirin suppresses bacterial virulence by targeting LysR-type transcriptional regulators” (Scientific Reports, 2016).
# Tests used:
# Hrg = assay: ITC; conditions: 10 mM sodium phosphate, 50 mM NaCl, pH 7.4, 25 °C; single-site model
# AphB = biological target: T1, AphB (Vibrio cholerae, UniProt Q9KT56); assay: biochemical
# T1 construct: gene VC_1049
compound,measurement,setting,value
"NC(=O)c1ncn([C@@H]2O[C@H](CO)[C@@H](O)[C@H]2O)n1 [ribavirin, 1-D-ribofuranosyl-1H-1,2,4-triazole-3-carboxamide]",Kd,Hrg,235 µM
same,Kd,AphB,~300 µM
